Measured values published in patent publication US8871760B2, “[1,2,4]triazolo[3,4-C][1,4]oxazines as P2X7 modulators” (Roche Palo Alto LLC, priority 2009, dated 2014).

Biological target: T1, human P2X7 (UniProt Q99572)
T1 sequence (Q99572 1-595): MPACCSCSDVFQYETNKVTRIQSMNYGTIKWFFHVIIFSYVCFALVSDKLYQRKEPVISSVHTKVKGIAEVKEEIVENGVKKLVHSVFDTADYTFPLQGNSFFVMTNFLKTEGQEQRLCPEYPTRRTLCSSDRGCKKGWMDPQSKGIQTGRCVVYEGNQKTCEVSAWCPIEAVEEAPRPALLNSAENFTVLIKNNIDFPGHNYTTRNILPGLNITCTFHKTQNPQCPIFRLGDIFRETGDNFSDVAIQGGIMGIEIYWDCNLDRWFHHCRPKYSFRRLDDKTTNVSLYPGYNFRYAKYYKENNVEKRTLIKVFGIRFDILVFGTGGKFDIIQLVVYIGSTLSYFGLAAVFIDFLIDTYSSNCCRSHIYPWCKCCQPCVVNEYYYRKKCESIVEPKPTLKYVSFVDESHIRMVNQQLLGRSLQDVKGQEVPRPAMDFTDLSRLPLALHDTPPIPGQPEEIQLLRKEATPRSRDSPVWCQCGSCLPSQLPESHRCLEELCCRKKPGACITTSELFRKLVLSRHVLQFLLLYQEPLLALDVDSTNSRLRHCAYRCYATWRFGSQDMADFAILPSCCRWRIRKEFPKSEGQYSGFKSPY
Test: Intracellular Calcium Flux (FLIPR) Assay
Assay type: cell-based
Method: Intracellular Calcium Flux (FLIPR) Assay
Compound and Reagent Preparation
Stock solutions of compounds were prepared from powders as a 10 mM DMSO stock solution. These solutions were stored at RT during the two week period of these experiments to prevent freeze-thaw of the DMSO stocks. The DMSO stocks were added to the appropriate assay buffer at a concentration of 10 μM, and then diluted serially to the final concentrations that were tested. No observable precipitate was formed at any time during this process. The aqueous solutions of compounds as well as ATP (Sigma A7699) and BzATP (Sigma B6396) were prepared fresh for each day of experiment.
1321N1 cells stably expressing the full length human P2X7 gene (1321N1-hP2X7) and HEK293 cells stably expressing the full length rat P2X7 gene (HEK293-rP2X7) were obtained from the Roche Cell Culture Facility. 1321N1-hP2X7 cells were grown in Dulbecco's Modified Eagle's Medium (DMEM) high glucose supplemented with 10% FBS and […] G418. HEK293-rP2X7 cells were grown in DMEM/F-12 supplemented with 10% FBS, 1 mM CaCl2, 2 mM MgCl2, 2 mM L-Glutamine and […] G418. Cells were split such that they never became >70% confluent.
Intracellular Calcium Flux (FLIPR)
On the day prior to the experiment, 1321N1-hP2X7 or HEK293-rP2X7 cells were released into suspension with calcium-free PBS+Versene and washed by centrifugation with calcium-free PBS to remove the Versene. Cells were resuspended in growth medium at a density of 2.5×10^5 cells/mL and seeded into black walled, clear bottom 96 well plates (50,000 cells/well) approximately 18 hr prior to intracellular calcium flux experiments.
On the day of the experiment, plates were washed with FLIPR buffer (calcium- and magnesium-free Hank's Balanced Salt Solution (HBSS) supplemented with 10 mM Hepes, 2.5 mM probenecid and 2 mM calcium chloride) using a BIO-TEK 96 channel plate washer and incubated with […] fluo-3 dye at 37° C. for one hr. The dye was then removed by plate washing and the cells were allowed to equilibrate for 20 min at room temperature with antagonist or vehicle (FLIPR buffer). Agonist (100 μM BzATP final concentration for hP2X7; 5 μM BzATP final concentration or rP2X7) was added online with the FLIPR and fluorescence measurements made at 1 sec intervals for 60 sec followed by 3 sec intervals for a further 4 min (5 min total). A final addition of 5 μM ionomycin was made and the maximal BzATP-evoked fluorescence normalized to the maximal ionomycin-evoked fluorescence.

pIC50 | Structure (SMILES)
7.735 | Cc1ccc(-c2cc(C)n(CCO)n2)cc1Nc1nnc2n1[C@H](c1ccc(F)cc1)COC2 [Compound 30, 2-(3-{3-[(R)-5-(4-Fluoro-phenyl)-5,6-dihydro-8H-[1,2,4]triazolo[3,4-c][1,4]oxazin-3-ylamino]-4-methyl-phenyl}-5-methyl-pyrazol-1-yl)-ethanol]
7.45 | Cc1ccc(-c2cc(C)n(C[C@@H](C)O)n2)cc1Nc1nnc2n1[C@H](c1ccc(F)cc1)COC2 [Compound 31, (R)-1-(3-{3-[(R)-5-(4-Fluoro-phenyl)-5,6-dihydro-8H-[1,2,4]triazolo[3,4-c][1,4]oxazin-3-ylamino]-4-methyl-phenyl}-5-methyl-pyrazol-1-yl)-propan-2-ol]
7.5475 | Cc1ccc(-c2cc(C)n(C[C@@H](O)CO)n2)cc1Nc1nnc2n1[C@H](c1ccc(F)cc1)COC2 [Compound 32, (R)-3-(3-{3-[(R)-5-(4-Fluoro-phenyl)-5,6-dihydro-8H-[1,2,4]triazolo[3,4-c][1,4]oxazin-3-ylamino]-4-methyl-phenyl}-5-methyl-pyrazol-1-yl)-propane-1,2-diol]
7.56 | COC[C@H](O)Cn1nc(-c2ccc(C)c(Nc3nnc4n3[C@H](c3ccc(F)cc3)COC4)c2)cc1C [Compound 33, (R)-1-(3-{3-[(R)-5-(4-Fluoro-phenyl)-5,6-dihydro-8H-[1,2,4]triazolo[3,4-c][1,4]oxazin-3-ylamino]-4-methyl-phenyl}-5-methyl-pyrazol-1-yl)-3-methoxy-propan-2-ol]
7.4 | Cc1ccc(-c2cc(C)n(C[C@H](C)O)n2)cc1Nc1nnc2n1[C@H](c1ccc(F)cc1)COC2 [Compound 34, (S)-1-(3-{3-[(R)-5-(4-Fluoro-phenyl)-5,6-dihydro-8H-[1,2,4]triazolo[3,4-c][1,4]oxazin-3-ylamino]-4-methyl-phenyl}-5-methyl-pyrazol-1-yl)-propan-2-ol]
7.755 | Cc1ccc(-c2cc(C)n(C[C@H](O)CO)n2)cc1Nc1nnc2n1[C@H](c1ccc(F)cc1)COC2 [Compound 35, (S)-3-(3-{3-[(R)-5-(4-Fluoro-phenyl)-5,6-dihydro-8H-[1,2,4]triazolo[3,4-c][1,4]oxazin-3-ylamino]-4-methyl-phenyl}-5-methyl-pyrazol-1-yl)-propane-1,2-diol]
7.87 | Cc1ccc2ncccc2c1Nc1nnc2n1[C@H](c1ccc(F)cc1)COC2 [Compound 36, [(R)-5-(4-Fluoro-phenyl)-5,6-dihydro-8H-[1,2,4]triazolo[3,4-c][1,4]oxazin-3-yl]-(6-methyl-quinolin-5-yl)-amine]
7.865 | Cc1ccc(-c2ccnn(C)c2=O)cc1Nc1nnc2n1[C@H](c1ccc(F)cc1)COC2 [Compound 37, 4-{3-[(R)-5-(4-Fluoro-phenyl)-5,6-dihydro-8H-[1,2,4]triazolo[3,4-c][1,4]oxazin-3-ylamino]-4-methyl-phenyl}-2-methyl-2H-pyridazin-3-one]
7.46 | Cc1ccc2[nH]c(=O)ccc2c1Nc1nnc2n1[C@H](c1ccc(F)cc1)COC2 [Compound 38, 5-[(R)-5-(4-Fluoro-phenyl)-5,6-dihydro-8H-[1,2,4]triazolo[3,4-c][1,4]oxazin-3-ylamino]-6-methyl-1H-quinolin-2-one]
7.54 | Cc1cc(-c2ccc(Cl)c(Nc3nnc4n3[C@H](c3ccc(F)cc3)COC4)c2)nn1CCO [Compound 40, 2-(3-{4-Chloro-3-[(R)-5-(4-fluoro-phenyl)-5,6-dihydro-8H-[1,2,4]triazolo[3,4-c][1,4]oxazin-3-ylamino]-phenyl}-5-methyl-pyrazol-1-yl)-ethanol]
7.665 | Cc1ccc(-c2ccc(=O)[nH]n2)cc1Nc1nnc2n1[C@H](c1ccc(F)cc1)COC2 [Compound 41, 6-{3-[(R)-5-(4-Fluoro-phenyl)-5,6-dihydro-8H-[1,2,4]triazolo[3,4-c][1,4]oxazin-3-ylamino]-4-methyl-phenyl}-2H-pyridazin-3-one]
6.135 | O=c1[nH]ncc2c(Nc3nnc4n3[C@H](c3ccc(F)cc3)COC4)cccc12 [Compound 42, 5-[(R)-5-(4-Fluoro-phenyl)-5,6-dihydro-8H-[1,2,4]triazolo[3,4-c][1,4]oxazin-3-ylamino]-2H-phthalazin-1-one]
8.28 | Cc1ccc(-c2ccn[nH]c2=O)cc1Nc1nnc2n1[C@H](c1ccc(F)cc1)COC2 [Compound 43, 4-{3-[(R)-5-(4-Fluoro-phenyl)-5,6-dihydro-8H-[1,2,4]triazolo[3,4-c][1,4]oxazin-3-ylamino]-4-methyl-phenyl}-2H-pyridazin-3-one]
7.6 | Cc1cc(Cl)c(OCCO)cc1Nc1nnc2n1[C@H](c1cccc(F)c1)COC2 [Compound 44, 2-{2-Chloro-5-[(R)-5-(3-fluoro-phenyl)-5,6-dihydro-8H-[1,2,4]triazolo[3,4-c][1,4]oxazin-3-ylamino]-4-methyl-phenoxy}-ethanol]
7.705 | Cc1cc(Cl)c(OCCO)cc1Nc1nnc2n1[C@H](c1ccc(F)cc1)C[S@@+]([O-])C2 [Compound 47, 2-{2-Chloro-5-[(5R,7R)-5-(4-fluoro-phenyl)-7-oxo-5,6,7,8-tetrahydro-7lambda*4*- [1,2,4]triazolo[3,4-c][1,4]thiazin-3-ylamino]-4-methyl-phenoxy}-ethanol]
7.57 | O=c1[nH]ncc2c(Nc3nnc4n3[C@H](c3ccc(F)cc3)COC4)c(Br)ccc12 [Compound 48, 6-Bromo-5-[(R)-5-(4-fluoro-phenyl)-5,6-dihydro-8H-[1,2,4]triazolo[3,4-c][1,4]oxazin-3-ylamino]-2H-phthalazin-1-one]
8.2 | O=c1[nH]nccc1-c1ccc(Br)c(Nc2nnc3n2[C@H](c2ccc(F)cc2)COC3)c1 [Compound 49, 4-{4-Bromo-3-[(R)-5-(4-fluoro-phenyl)-5,6-dihydro-8H-[1,2,4]triazolo[3,4-c][1,4]oxazin-3-ylamino]-phenyl}-2H-pyridazin-3-one]
7.17 | Cc1cc(Cl)c(-n2ncccc2=O)cc1Nc1nnc2n1[C@H](c1ccc(F)cc1)COC2 [Compound 50, 2-{2-Chloro-5-[(R)-5-(4-fluoro-phenyl)-5,6-dihydro-8H-[1,2,4]triazolo[3,4-c][1,4]oxazin-3-ylamino]-4-methyl-phenyl}-2H-pyridazin-3-one]
8.16 | Cc1ccc(-c2ccnn(C)c2=O)cc1Nc1nnc2n1[C@H](c1ccc(F)cc1)CSC2 [Compound 51, 4-{3-[(R)-5-(4-Fluoro-phenyl)-5,6-dihydro-8H-[1,2,4]triazolo[3,4-c][1,4]thiazin-3-ylamino]-4-methyl-phenyl}-2-methyl-2H-pyridazin-3-one]
8.09 | Cc1ccc(-c2ccnn(CCO)c2=O)cc1Nc1nnc2n1[C@H](c1ccc(F)cc1)COC2 [Compound 52, 4-{3-[(R)-5-(4-Fluoro-phenyl)-5,6-dihydro-8H-[1,2,4]triazolo[3,4-c][1,4]oxazin-3-ylamino]-4-methyl-phenyl}-2-(2-hydroxy-ethyl)-2H-pyridazin-3-one]
7.325 | O=C1NCCCN1c1ccc(Br)c(Nc2nnc3n2[C@H](c2ccc(F)cc2)COC3)c1 [Compound 54, 1-{4-Bromo-3-[(R)-5-(4-fluoro-phenyl)-5,6-dihydro-8H-[1,2,4]triazolo-[3,4-c][1,4]oxazin-3-ylamino]-phenyl}-tetrahydro-pyrimidin-2-one]
8.035 | Cn1nccc(-c2ccc(F)c(Nc3nnc4n3[C@H](c3ccc(F)cc3)COC4)c2)c1=O [Compound 55, 4-{4-Fluoro-3-[(R)-5-(4-fluoro-phenyl)-5,6-dihydro-8H-[1,2,4]triazolo[3,4-c][1,4]oxazin-3-ylamino]-phenyl}-2-methyl-2H-pyridazin-3-one]
